Read-outs that look alike come from different tables or passages of the source.
Columns and labels:
[1] = biological target: T1, menin (Homo sapiens, UniProt O00255, T541A); assay: Menin/MLL homogenous time-resolved fluorescence (HTRF) assay; format: binding
T1 construct: Menin (a.a. 1-610-6×his tag)
T1 sequence (O00255 with tags, fused parts or gaps T541A): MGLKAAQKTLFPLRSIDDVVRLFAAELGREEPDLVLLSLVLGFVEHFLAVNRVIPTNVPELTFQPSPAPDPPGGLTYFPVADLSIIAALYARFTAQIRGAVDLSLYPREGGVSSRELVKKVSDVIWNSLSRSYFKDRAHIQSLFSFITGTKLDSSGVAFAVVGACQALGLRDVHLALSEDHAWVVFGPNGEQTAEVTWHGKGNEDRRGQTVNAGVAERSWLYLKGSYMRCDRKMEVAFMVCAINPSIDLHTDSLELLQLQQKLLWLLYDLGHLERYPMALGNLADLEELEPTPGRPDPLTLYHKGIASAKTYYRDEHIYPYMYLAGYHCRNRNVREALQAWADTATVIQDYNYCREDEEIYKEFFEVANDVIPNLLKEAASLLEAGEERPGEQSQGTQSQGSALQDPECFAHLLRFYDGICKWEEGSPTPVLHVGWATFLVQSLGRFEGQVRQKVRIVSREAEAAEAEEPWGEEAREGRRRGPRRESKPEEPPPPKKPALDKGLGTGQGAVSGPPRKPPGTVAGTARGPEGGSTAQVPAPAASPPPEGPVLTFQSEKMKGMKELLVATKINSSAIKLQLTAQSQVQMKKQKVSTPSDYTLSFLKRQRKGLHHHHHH
Method in brief: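 Displacement of 75 nM FITC-MBM1 from terbium-cryptate-labeled His-tagged menin 1-610 ([…]) was read as the 520/490 nm HTRF ratio. Compound (11-point, 3-fold series) got 5 min with menin before peptide, then 15 min at ambient; 0.5% DMSO, Tris pH 7.5.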

[2] = test system: MV-4-11; assay: Proliferation assay A (spheroid assay) MV-4-11; format: cell-based, human; settings: MV-4-11 cells, 8 d, AUC of confluence against time, absolute IC50, read-out: (3a) Spheroid assay MV-4-11 (IC50(μM)) Assay A
Method: 3a) Proliferation Assay A
The anti-proliferative effect of menin/MLL protein/protein interaction inhibitor test compounds was assessed in human leukemia cell lines. The cell lines MV-4-11 and MOLM14 harbor MILL translocations and express the MILL fusion proteins MLL-AF4 and MLL-AF9, respectively, as well as the wildtype protein from the second allele. […] K562 was used as a control cell line containing two MLL wildtype alleles in order to exclude compounds that display general cytotoxic effects.
MV-4-11 and MOLM14 were cultured in RPMI-1640 (Sigma Aldrich) supplemented with 10% fetal bovine serum (HyClone), 2 mM L-glutamine (Sigma Aldrich) and 50 μg/ml gentamycin (Gibco). K562 were propagated in RPMI-1640 (Sigma Aldrich) supplemented with 20% fetal bovine serum (HyClone), 2 mM L-glutamine (Sigma Aldrich) and 50 μg/ml gentamycin (Gibco).
In order to assess the anti-proliferative effects, 1,500 MV-4-11, 300 MOLM14 or 750 K562 cells were seeded in 200 μl media per well in 96-well round bottom, ultra-low attachment plates (Costar, catalogue number 7007). Cell seeding numbers were chosen based on growth curves to ensure linear growth throughout the experiment. Test compounds were added at different concentrations and the DMSO content was normalized to 0.3%. Cells were incubated for 8 d at 37° C. and 5% CO2. Spheroid like growth was monitored in real-time by live-cell imaging (IncuCyteZOOM, Essenbio, 4× objective) acquiring one image every four hours for 8 d. Confluence (%) as a measure of spheroid size was determined using an integrated analysis tool.
In order to determine the cumulative effect of the test compounds over time, the area under the curve (AUC) in a plot of confluence against time was calculated. Confluence at the beginning of the experiment (t=0) was used as baseline for the AUC calculation.
Absolute IC50 values were calculated according to the following procedure: % Control=(AUC sample/AUC control)*100
AUC control mean AUC of control values (cells without compound/DMSO as vehicle control)
A non-linear curve fit was applied using the least squares (ordinary) fit method to the plot of % control versus compound concentration. Based on this, the absolute IC50 value (half maximal inhibitory concentration of the test compound causing an anti-proliferative effect of 50% relative to the vehicle control) was calculated.

[3] = test system: MOLM14; assay: Proliferation assay B (spheroid assay) MOLM14; format: cell-based, human; settings: MOLM14 cells, confluence at day 8, absolute IC50, read-out: (3b) Spheroid assay MOLM14 (IC50(μM)) Assay B
Method in brief: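 IC50 derived from % effect on day-8 imaged confluence, scaled between DMSO-treated cells (high) and 1 μM staurosporine (low), using a variable-slope fit constrained 0-100%. Cells seeded as spheroids in ultra-low-attachment plates and exposed to compound for 8 days, 0.3% DMSO.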

[4] = location 2, read-out: (2) location 2 Menin HTRF assay (IC50 (nM))
[5] = location 1, read-out: (2) location 1 Menin HTRF assay (IC50 (nM))

## COc1cc(NC2CC3(CCN(c4ncnc5sc(CC(F)(F)F)cc45)C3)C2)ccn1 (mixture of isomers) [Compound 341]
[1]; [4]
  IC50: 50.3 nM
[2]; Homo sapiens, MV4-11, 192 h
  IC50: 0.84 µM
[3]; Homo sapiens, MOLM-14, 192 h
  IC50: 3.03 µM

## CNc1nc(N2CCC3(CC(Nc4ccc5[nH]c(=O)[nH]c5c4)C3)C2)c2cc(CC(F)(F)F)sc2n1 (mixture of isomers) [Compound 393]
[1]; [4]
  IC50: 68.3 nM
[2]; Homo sapiens, MV4-11, 192 h
  IC50: 2.6 µM

## CNc1nc(N2CCC3(CC(Nc4ccc5oc(=O)[nH]c5c4)C3)C2)c2cc(CC(F)(F)F)sc2n1 (mixture of isomers) [Compound 396]
[1]; [4]
  IC50: 17.8 nM
[2]; Homo sapiens, MV4-11, 192 h
  IC50: 1.8 µM

## CNS(=O)(=O)c1ccc(NC2CCC3(C2)CN(c2ncnc4sc(CC(F)(F)F)cc24)C3)cc1 (racemic) [Compound 279]
[1]; [4]
  IC50: 82.9 nM
[2]; Homo sapiens, MV4-11, 192 h
  IC50: > 3.75 µM

## FC(F)(F)Cc1cc2c(N3CCC4(CCC(NCc5ccccc5)CC4)C3)ncnc2s1 (single isomer, unassigned) [Compound 2]
[1]; [5]
  IC50: 91.2 nM
[1]; [4]
  IC50: 84.5 nM
[2]; Homo sapiens, MV4-11, 192 h
  IC50: 1.64 µM

## FC(F)(F)Cc1cc2c(N3CC[C@]4(CC[C@@H](NCc5ccccc5)C4)C3)ncnc2s1 (single isomer, unassigned) [Compound 5]
[1]; [5]
  IC50: 304 nM
[1]; [4]
  IC50: 63.8 nM
[2]
  IC50: 1.69 µM

## CNC(=O)c1ccc(NC2CC3(CCN(c4ncnc5sc(CC(F)(F)F)cc45)C3)C2)cc1 (single isomer, unassigned) [Compound 95]
[1]; [4]
  IC50: 34.6 nM
[2]
  IC50: 1.27 µM
[3]
  IC50: 0.82 µM

## N#CCc1ccc(NC2CC3(CCN(c4ncnc5sc(CC(F)(F)F)cc45)C3)C2)c(Cl)c1 (single isomer, unassigned) [Compound 208]
[1]; [4]
  IC50: 37.7 nM
[2]; Homo sapiens, MV4-11, 192 h
  IC50: 3.16 µM

## N#CCc1ccc(NC2CC3(CCN(c4ncnc5sc(CC(F)(F)F)cc45)C3)C2)cc1Cl (single isomer, unassigned) [Compound 211]
[1]; [4]
  IC50: 18.2 nM
[2]; Homo sapiens, MV4-11, 192 h
  IC50: 2.13 µM

## CNc1nc(N2CCC3(CC(Nc4ccccc4)C3)C2)c2cc(CC(F)(F)F)sc2n1 (single isomer, unassigned) [Compound 269]
[1]; [4]
  IC50: 78.6 nM
[2]; Homo sapiens, MV4-11, 192 h
  IC50: > 3.75 µM

## CNS(=O)(=O)c1ccc(N[C@H]2CCC3(C2)CN(c2ncnc4sc(CC(F)(F)F)cc24)C3)cc1 (single isomer, unassigned) [Compound 291]
[1]; [4]
  IC50: 51.9 nM
[2]; Homo sapiens, MV4-11, 192 h
  IC50: > 3.75 µM

## O=C1Cc2ccc(N[C@@H]3CCC4(C3)CN(c3ncnc5sc(CC(F)(F)F)cc35)C4)cc2N1 (single isomer, unassigned) [Compound 293]
[1]; [4]
  IC50: 11 nM
[2]; Homo sapiens, MV4-11, 192 h
  IC50: 2.77 µM

## O=c1[nH]c2ccc(N[C@@H]3CCC4(C3)CN(c3ncnc5sc(CC(F)(F)F)cc35)C4)cc2[nH]1 (single isomer, unassigned) [Compound 299]
[1]; [4]
  IC50: 94.8 nM
[2]; Homo sapiens, MV4-11, 192 h
  IC50: > 3.75 µM

## CNS(=O)(=O)c1ccc(NC2CC3(CCN(c4ncnc5sc(CC(F)(F)F)cc45)C3)C2)cc1 (single isomer, unassigned) [Compound 318]
[1]; [4]
  IC50: 8.1 nM
[2]; Homo sapiens, MV4-11, 192 h
  IC50: 0.6 µM
[3]; Homo sapiens, MOLM-14, 192 h
  IC50: 3.07 µM

## O=c1[nH]c2ccc(NC3CC4(CCN(c5ncnc6sc(CC(F)(F)F)cc56)C4)C3)cc2[nH]1 (single isomer, unassigned) [Compound 320]
[1]; [4]
  IC50: 41.6 nM
[2]; Homo sapiens, MV4-11, 192 h
  IC50: 3.71 µM

## O=c1[nH]c2ccc(NC3CC4(CCN(c5ncnc6sc(CC(F)(F)F)cc56)C4)C3)cc2[nH]1 (single isomer, unassigned) [Compound 321]
[1]; [4]
  IC50: 915 nM
[2]
  IC50: > 3.75 µM

## O=c1[nH]c2ccc(NC3CC4(CCN(c5ncnc6sc(CC(F)(F)F)cc56)C4)C3)cc2o1 (single isomer, unassigned) [Compound 323]
[1]; [4]
  IC50: 26.4 nM
[2]; Homo sapiens, MV4-11, 192 h
  IC50: 3.66 µM

## FC(F)(F)Cc1cc2c(N3CCC4(CC(Nc5ccc(-c6cn[nH]c6)cc5)C4)C3)ncnc2s1 (single isomer, unassigned) [Compound 327]
[1]; [4]
  IC50: 8.4 nM
[2]; Homo sapiens, MV4-11, 192 h
  IC50: 0.56 µM
[3]; Homo sapiens, MOLM-14, 192 h
  IC50: > 3.75 µM

## N#CCc1ccc(NC2CC3(CCN(c4nc(N)nc5sc(CC(F)(F)F)cc45)C3)C2)cc1 (single isomer, unassigned) [Compound 378]
[1]; [4]
  IC50: 42.9 nM
[2]; Homo sapiens, MV4-11, 192 h
  IC50: > 3.75 µM

## Nc1nc(N2CCC3(CC(Nc4ccc5[nH]c(=O)oc5c4)C3)C2)c2cc(CC(F)(F)F)sc2n1 (single isomer, unassigned) [Compound 385]
[1]; [4]
  IC50: 27.2 nM
[2]
  IC50: > 3.75 µM

## FC(F)(F)Cc1cc2c(N3CC4(CCC(Nc5ccccc5)C4)C3)ncnc2s1 (stereo not shown) [Compound 7]
[1]; [4]
  IC50: 658 nM
[2]; Homo sapiens, MV4-11, 192 h
  IC50: 13.5 µM

## CS(=O)(=O)Nc1ccc(C(=O)NC2CC3(CCN(c4ncnc5sc(CC(F)(F)F)cc45)C3)C2)cc1 (stereo not shown) [Compound 27]
[1]; [4]
  IC50: 585 nM
[2]; Homo sapiens, MV4-11, 192 h
  IC50: 11.9 µM

## FC(F)(F)Cc1cc2c(N3CCC4(CC(CNc5ccccc5)C4)C3)ncnc2s1 (stereo not shown) [Compound 38]
[1]; [4]
  IC50: 447 nM
[2]; Homo sapiens, MV4-11, 192 h
  IC50: 5.21 µM

## CN(CC1CC2(CCN(c3ncnc4sc(CC(F)(F)F)cc34)C2)C1)c1ccccc1 (stereo not shown) [Compound 41]
[1]; [4]
  IC50: 339 nM
[2]; Homo sapiens, MV4-11, 192 h
  IC50: 10 µM

## CNC(=O)c1ccc(NC2CC3(CCN(c4nc(NC)nc5sc(CC(F)(F)F)cc45)C3)C2)cc1 (stereo not shown) [Compound 64]
[1]; [4]
  IC50: 2.4 nM
[2]; Homo sapiens, MV4-11, 192 h
  IC50: 0.14 µM
[3]; Homo sapiens, MOLM-14, 192 h
  IC50: 0.92 µM

## Cn1c(=O)[nH]c2cc(NC3CC4(CCN(c5ncnc6sc(CC(F)(F)F)cc56)C4)C3)ccc21 (stereo not shown) [Compound 89]
[1]; [4]
  IC50: 27.8 nM
[2]; Homo sapiens, MV4-11, 192 h
  IC50: 2.73 µM

## FC(F)(F)Cc1cc2c(N3CCC4(CC(Nc5ccc(-c6cc[nH]n6)cc5)C4)C3)ncnc2s1 (stereo not shown) [Compound 92]
[1]; [4]
  IC50: 5.3 nM
[2]; Homo sapiens, MV4-11, 192 h
  IC50: 0.48 µM

## O=C1Cc2ccc(NC3CCC4(C3)CN(c3ncnc5sc(CC(F)(F)F)cc35)C4)cc2N1 (stereo not shown) [Compound 292]
[1]; [4]
  IC50: 81.3 nM
[2]; Homo sapiens, MV4-11, 192 h
  IC50: > 3.75 µM

## FC(F)(F)Cc1cc2c(N3CC4(CCC(Nc5ccc(-c6cc[nH]n6)cc5)C4)C3)ncnc2s1 (stereo not shown) [Compound 301]
[1]; [4]
  IC50: 32.3 nM
[2]; Homo sapiens, MV4-11, 192 h
  IC50: 1.76 µM

## FC(F)(F)Cc1cc2c(N3CC4(CCC(Nc5ccc(-c6cn[nH]c6)cc5)C4)C3)ncnc2s1 (stereo not shown) [Compound 302]
[1]; [4]
  IC50: 509 nM
[2]; Homo sapiens, MV4-11, 192 h
  IC50: 2.56 µM
